The text below walks through data of the supplement of paper PMC10307832.

What all share (test): relative viability (nuclei count vs DMSO), 5 days (fraction); higher = more cells survive
Compound in the assay “XMD8-85 + Bortezomib”: CN1CCN(CC1)C2=CC(=C(C=C2)NC3=NC=C4C(=N3)N(C5=CC=CC=C5C(=O)N4C)C)OC [XMD8-85] + CC(C)C[C@H](NC(=O)[C@H](Cc1ccccc1)NC(=O)c1cnccn1)B(O)O [Bortezomib] (partner 0.002 µM)
Put shortly: (§1)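 After 5 days of treatment, lung cancer cells in 1536-well plates were fixed and stained in a single step (final 0.05% Triton X-100, 1% formaldehyde, 1 ug/ml Hoechst) and their nuclei counted on 4× images. Treatment had been applied by pin tool the day after seeding as one drug alone or as a fixed anchor-drug dose with five library-drug doses (not always all listed) in √10 steps. Relative viability is the nuclei count of treated wells divided by that of vehicle wells, and values are medians of duplicate plates.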

Compound in the assay “4EGI-1 + Dasatinib”: O=C(O)C(Cc1ccccc1[N+](=O)[O-])=NNc1nc(-c2ccc(Cl)c(Cl)c2)cs1 (mixture of isomers) [4EGI-1] + Cc1nc(Nc2ncc(C(=O)Nc3c(C)cccc3Cl)s2)cc(N2CCN(CCO)CC2)n1 [Dasatinib] (partner 0.075 µM)
A digest of the protocol: as §1

Compound in the assay “XMD8-85 + Olaparib”: CN1CCN(CC1)C2=CC(=C(C=C2)NC3=NC=C4C(=N3)N(C5=CC=CC=C5C(=O)N4C)C)OC [XMD8-85] + O=C(c1cc(Cc2n[nH]c(=O)c3ccccc23)ccc1F)N1CCN(C(=O)C2CC2)CC1 [Olaparib] (partner 8 µM)
A digest of the protocol: as §1

Compound in the assay “XMD8-85 + Pictilisib”: CN1CCN(CC1)C2=CC(=C(C=C2)NC3=NC=C4C(=N3)N(C5=CC=CC=C5C(=O)N4C)C)OC [XMD8-85] + CS(=O)(=O)N1CCN(Cc2cc3nc(-c4cccc5[nH]ncc45)nc(N4CCOCC4)c3s2)CC1 [Pictilisib] (partner 1 µM)
Put shortly: as §1

As to NCI-H647, the relative viability turned out to be 1.15 with XMD8-85 + Bortezomib (first compound 0.08 µM); 0.778 with XMD8-85 + Bortezomib (first compound 0.253 µM); 1.13 with XMD8-85 + Bortezomib (first compound 0.8 µM); 0.924 in the assay with XMD8-85 + Bortezomib (first compound 2.53 µM); 0.515 with XMD8-85 + Bortezomib (first compound 8 µM); 0.149 with 4EGI-1 + Dasatinib (first compound 0.5 µM). Besides, the relative viability with 4EGI-1 + Dasatinib (first compound 5 µM) was 0.186; with 4EGI-1 + Dasatinib (first compound 15.81 µM), 0.167; with 4EGI-1 + Dasatinib (first compound 50 µM) it was 0.0838; with XMD8-85 + Olaparib (first compound 0.08 µM), 0.573; with XMD8-85 + Olaparib (first compound 0.253 µM) it was 0.378; with XMD8-85 + Olaparib (first compound 0.8 µM), 0.605. The relative viability amounted to 0.408 with XMD8-85 + Olaparib (first compound 2.53 µM); 0.118 with XMD8-85 + Olaparib (first compound 8 µM); 0.473 with XMD8-85 + Pictilisib (first compound 0.08 µM); 0.45 with XMD8-85 + Pictilisib (first compound 0.253 µM); 0.367 in the assay with XMD8-85 + Pictilisib (first compound 0.8 µM); 0.434 in the assay with XMD8-85 + Pictilisib (first compound 2.53 µM). Also, the relative viability with XMD8-85 + Pictilisib (first compound 8 µM) came out at 0.155.
For the cell line NCI-H727, the relative viability with XMD8-85 + Bortezomib (first compound 0.08 µM) is 0.64; with XMD8-85 + Bortezomib (first compound 0.253 µM) it was 0.727; in the assay with XMD8-85 + Bortezomib (first compound 0.8 µM), 1.34; in the assay with XMD8-85 + Bortezomib (first compound 2.53 µM), 1.3; in the assay with XMD8-85 + Bortezomib (first compound 8 µM), 0.452; in the assay with 4EGI-1 + Dasatinib (first compound 0.5 µM), 0.323. The relative viability is 0.436 with 4EGI-1 + Dasatinib (first compound 1.581 µM); 0.344 in the assay with 4EGI-1 + Dasatinib (first compound 5 µM); 0.272 in the assay with 4EGI-1 + Dasatinib (first compound 15.81 µM); 0.23 with 4EGI-1 + Dasatinib (first compound 50 µM); 0.684 with XMD8-85 + Olaparib (first compound 0.08 µM); 0.674 with XMD8-85 + Olaparib (first compound 0.253 µM). The relative viability came out at 0.867 in the assay with XMD8-85 + Olaparib (first compound 0.8 µM); 0.725 with XMD8-85 + Olaparib (first compound 2.53 µM); 0.684 in the assay with XMD8-85 + Olaparib (first compound 8 µM); 0.373 with XMD8-85 + Pictilisib (first compound 0.08 µM); 0.387 in the assay with XMD8-85 + Pictilisib (first compound 0.253 µM); 0.342 with XMD8-85 + Pictilisib (first compound 0.8 µM). Also, the relative viability in the assay with XMD8-85 + Pictilisib (first compound 2.53 µM) turned out to be 0.433; in the assay with XMD8-85 + Pictilisib (first compound 8 µM) it was 0.327.
Turning to COR-L23, the relative viability with XMD8-85 + Bortezomib (first compound 0.08 µM) stood at 1.05; with XMD8-85 + Bortezomib (first compound 0.253 µM), 0.962; with XMD8-85 + Bortezomib (first compound 0.8 µM), 1.17; with XMD8-85 + Bortezomib (first compound 2.53 µM) it was 0.957; with XMD8-85 + Bortezomib (first compound 8 µM) it was 0.691; in the assay with 4EGI-1 + Dasatinib (first compound 0.5 µM), 0.578. For the same cell line, the relative viability with 4EGI-1 + Dasatinib (first compound 1.581 µM) worked out at 0.207; in the assay with 4EGI-1 + Dasatinib (first compound 5 µM), 0.483; with 4EGI-1 + Dasatinib (first compound 15.81 µM) it was 0.307; with 4EGI-1 + Dasatinib (first compound 50 µM), 0.141; with XMD8-85 + Olaparib (first compound 0.08 µM), 0.369; with XMD8-85 + Olaparib (first compound 0.253 µM), 0.319. Besides, the relative viability stood at 0.421 with XMD8-85 + Olaparib (first compound 0.8 µM); 0.302 with XMD8-85 + Olaparib (first compound 2.53 µM); 0.236 with XMD8-85 + Olaparib (first compound 8 µM); 0.8 in the assay with XMD8-85 + Pictilisib (first compound 0.08 µM); 0.717 with XMD8-85 + Pictilisib (first compound 0.253 µM); 1.01 with XMD8-85 + Pictilisib (first compound 0.8 µM). Also, the relative viability was 0.798 with XMD8-85 + Pictilisib (first compound 2.53 µM) and 0.577 with XMD8-85 + Pictilisib (first compound 8 µM).
Turning to NCI-H1915, the relative viability with XMD8-85 + Bortezomib (first compound 0.08 µM) was 0.67; with XMD8-85 + Bortezomib (first compound 0.253 µM) it was 0.923; with XMD8-85 + Bortezomib (first compound 0.8 µM), 0.942; in the assay with XMD8-85 + Bortezomib (first compound 2.53 µM), 0.986; with XMD8-85 + Bortezomib (first compound 8 µM) it was 0.945; in the assay with 4EGI-1 + Dasatinib (first compound 0.5 µM) it was 0.358. Also, the relative viability with 4EGI-1 + Dasatinib (first compound 1.581 µM) was 0.257; with 4EGI-1 + Dasatinib (first compound 5 µM), 0.314; in the assay with 4EGI-1 + Dasatinib (first compound 15.81 µM), 0.311; in the assay with 4EGI-1 + Dasatinib (first compound 50 µM) it was 0.163; in the assay with XMD8-85 + Olaparib (first compound 0.08 µM), 0.291; with XMD8-85 + Olaparib (first compound 0.253 µM), 0.263. Moreover, the relative viability with XMD8-85 + Olaparib (first compound 0.8 µM) amounted to 0.252; with XMD8-85 + Olaparib (first compound 2.53 µM), 0.222; in the assay with XMD8-85 + Olaparib (first compound 8 µM), 0.185; in the assay with XMD8-85 + Pictilisib (first compound 0.08 µM), 0.985; in the assay with XMD8-85 + Pictilisib (first compound 0.253 µM), 0.944; with XMD8-85 + Pictilisib (first compound 0.8 µM), 0.936. The relative viability came to 1.02 in the assay with XMD8-85 + Pictilisib (first compound 2.53 µM) and 0.676 with XMD8-85 + Pictilisib (first compound 8 µM).
Take NCI-H2126: the relative viability with XMD8-85 + Bortezomib (first compound 0.08 µM) was 1.04; with XMD8-85 + Bortezomib (first compound 0.253 µM), 1.13; with XMD8-85 + Bortezomib (first compound 0.8 µM) it was 1.18; in the assay with XMD8-85 + Bortezomib (first compound 2.53 µM) it was 1.15; with XMD8-85 + Bortezomib (first compound 8 µM) it was 1.12; with 4EGI-1 + Dasatinib (first compound 0.5 µM) it was 0.673. Further, the relative viability in the assay with 4EGI-1 + Dasatinib (first compound 5 µM) came to 0.629; with 4EGI-1 + Dasatinib (first compound 15.81 µM), 0.383; with 4EGI-1 + Dasatinib (first compound 50 µM) it was 0.309; with XMD8-85 + Olaparib (first compound 0.08 µM), 0.958; with XMD8-85 + Olaparib (first compound 0.253 µM), 0.897; with XMD8-85 + Olaparib (first compound 0.8 µM), 0.954. Besides, the relative viability with XMD8-85 + Olaparib (first compound 2.53 µM) was determined as 0.889; in the assay with XMD8-85 + Olaparib (first compound 8 µM), 0.94; with XMD8-85 + Pictilisib (first compound 0.08 µM), 0.503; with XMD8-85 + Pictilisib (first compound 0.253 µM), 0.497; with XMD8-85 + Pictilisib (first compound 0.8 µM) it was 0.531; in the assay with XMD8-85 + Pictilisib (first compound 2.53 µM) it was 0.522. The relative viability with XMD8-85 + Pictilisib (first compound 8 µM) came out at 0.429.
NCI-H2087: the relative viability with XMD8-85 + Bortezomib (first compound 0.08 µM) was 0.827; with XMD8-85 + Bortezomib (first compound 0.253 µM) it was 0.869; with XMD8-85 + Bortezomib (first compound 2.53 µM) it was 1.11; with XMD8-85 + Bortezomib (first compound 8 µM), 0.729; with 4EGI-1 + Dasatinib (first compound 0.5 µM), 0.837; with 4EGI-1 + Dasatinib (first compound 1.581 µM), 0.676. The relative viability was found to be 0.918 in the assay with 4EGI-1 + Dasatinib (first compound 5 µM); 0.493 in the assay with 4EGI-1 + Dasatinib (first compound 15.81 µM); 0.27 with 4EGI-1 + Dasatinib (first compound 50 µM); 0.527 in the assay with XMD8-85 + Olaparib (first compound 0.08 µM); 0.688 in the assay with XMD8-85 + Olaparib (first compound 0.253 µM); 0.7 with XMD8-85 + Olaparib (first compound 0.8 µM). Also, the relative viability with XMD8-85 + Olaparib (first compound 8 µM) turned out to be 0.533; in the assay with XMD8-85 + Pictilisib (first compound 0.08 µM) it was 0.924; in the assay with XMD8-85 + Pictilisib (first compound 0.253 µM), 0.723; with XMD8-85 + Pictilisib (first compound 0.8 µM) it was 0.961; with XMD8-85 + Pictilisib (first compound 2.53 µM), 0.83; in the assay with XMD8-85 + Pictilisib (first compound 8 µM), 0.542.
In the case of LC-2-ad, the relative viability was 1.04 with XMD8-85 + Bortezomib (first compound 0.08 µM); 0.976 with XMD8-85 + Bortezomib (first compound 0.253 µM); 0.99 in the assay with XMD8-85 + Bortezomib (first compound 0.8 µM); 0.921 in the assay with XMD8-85 + Bortezomib (first compound 2.53 µM); 0.697 with 4EGI-1 + Dasatinib (first compound 0.5 µM); 0.651 with 4EGI-1 + Dasatinib (first compound 5 µM). Besides, the relative viability is 0.199 in the assay with 4EGI-1 + Dasatinib (first compound 15.81 µM); 0.161 with 4EGI-1 + Dasatinib (first compound 50 µM); 0.771 in the assay with XMD8-85 + Olaparib (first compound 0.08 µM); 0.687 with XMD8-85 + Olaparib (first compound 0.253 µM); 0.701 with XMD8-85 + Olaparib (first compound 0.8 µM); 0.581 with XMD8-85 + Olaparib (first compound 2.53 µM). The relative viability with XMD8-85 + Olaparib (first compound 8 µM) was 0.415; with XMD8-85 + Pictilisib (first compound 0.08 µM), 0.433; with XMD8-85 + Pictilisib (first compound 0.253 µM) it was 0.497; in the assay with XMD8-85 + Pictilisib (first compound 0.8 µM), 0.543; in the assay with XMD8-85 + Pictilisib (first compound 2.53 µM), 0.483; in the assay with XMD8-85 + Pictilisib (first compound 8 µM), 0.276.
